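How tested: cells in 96-well plates exposed to compound for 48 hours at five concentrations. Definition used: TGI = concentration required for complete inhibition of growth.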
Assays:
Assay in all cases: NCI tumour cell line growth inhibition, 48 h
HOP-92 NSCLC = system: HOP-92 NSCLC
NCI-H460 lung = system: NCI-H460 lung
P388/ADR leukemia = system: P388/ADR leukemia
KM20L2 colon = system: KM20L2 colon
HT29 colon = system: HT29 colon
UACC-62 melanoma = system: UACC-62 melanoma
HOP-18 NSCLC = system: HOP-18 NSCLC
HL-60(TB) leukemia = system: HL-60(TB) leukemia
EKVX NSCLC = system: EKVX NSCLC
SNB-75 CNS = system: SNB-75 CNS
LOX IMVI melanoma = system: LOX IMVI melanoma
NCI-H226 lung = system: NCI-H226 lung
NCI-H522 lung = system: NCI-H522 lung
M19-MEL melanoma = system: M19-MEL melanoma
MALME-3M melanoma = system: MALME-3M melanoma
MCF7 breast = system: MCF7 breast
SNB-19 CNS = system: SNB-19 CNS
HCC-2998 colon = system: HCC-2998 colon
HCT-15 colon = system: HCT-15 colon
SN12C renal = system: SN12C renal
SF-268 CNS = system: SF-268 CNS
U251 CNS = system: U251 CNS
P388 leukemia = system: P388 leukemia
SF-539 CNS = system: SF-539 CNS
NCI-H23 lung = system: NCI-H23 lung
SF-295 CNS = system: SF-295 CNS
A498 renal = system: A498 renal
OVCAR-5 ovarian = system: OVCAR-5 ovarian
SK-MEL-28 melanoma = system: SK-MEL-28 melanoma
SK-MEL-5 melanoma = system: SK-MEL-5 melanoma
OVCAR-3 ovarian = system: OVCAR-3 ovarian
KM12 colon = system: KM12 colon
CAKI-1 renal = system: CAKI-1 renal
IGROV1 ovarian = system: IGROV1 ovarian
OVCAR-8 ovarian = system: OVCAR-8 ovarian
CCRF-CEM leukemia = system: CCRF-CEM leukemia
A549 NSCLC = system: A549 NSCLC
HOP-62 NSCLC = system: HOP-62 NSCLC
K-562 leukemia = system: K-562 leukemia
COLO 205 colon = system: COLO 205 colon
UACC-257 melanoma = system: UACC-257 melanoma
SN12K1 renal = system: SN12K1 renal
NCI/ADR-RES ovarian = system: NCI/ADR-RES ovarian
UO-31 renal = system: UO-31 renal
HCT-116 colon = system: HCT-116 colon
SK-OV-3 ovarian = system: SK-OV-3 ovarian
DLD-1 colon = system: DLD-1 colon
SW-620 colon = system: SW-620 colon
SNB-78 CNS = system: SNB-78 CNS
DMS 273 small cell lung = system: DMS 273 small cell lung
DMS 114 small cell lung = system: DMS 114 small cell lung
RPMI-8226 leukemia = system: RPMI-8226 leukemia
MOLT-4 leukemia = system: MOLT-4 leukemia
SK-MEL-2 melanoma = system: SK-MEL-2 melanoma
OVCAR-4 ovarian = system: OVCAR-4 ovarian

O=C(NC(Cc1ccc(I)cc1)C(=O)O)c1cccc(Br)c1 (stereo not given)
TGI (HOP-92 NSCLC): > 100 µM | TGI (NCI-H460 lung): > 100 µM | TGI (P388/ADR leukemia): > 100 µM | TGI (KM20L2 colon): > 100 µM | TGI (HT29 colon): > 100 µM | TGI (UACC-62 melanoma): > 100 µM | TGI (HOP-18 NSCLC): > 100 µM | TGI (HL-60(TB) leukemia): > 100 µM | TGI (EKVX NSCLC): > 100 µM | TGI (SNB-75 CNS): > 100 µM | TGI (LOX IMVI melanoma): > 100 µM | TGI (NCI-H226 lung): > 100 µM | TGI (NCI-H522 lung): > 100 µM | TGI (M19-MEL melanoma): > 100 µM | TGI (MALME-3M melanoma): > 100 µM | TGI (MCF7 breast): > 100 µM | TGI (SNB-19 CNS): > 100 µM | TGI (HCC-2998 colon): > 93.1 µM | TGI (HCT-15 colon): > 100 µM | TGI (SN12C renal): > 100 µM | TGI (SF-268 CNS): > 100 µM | TGI (U251 CNS): > 100 µM | TGI (P388 leukemia): > 100 µM | TGI (SF-539 CNS): > 100 µM | TGI (NCI-H23 lung): > 100 µM | TGI (SF-295 CNS): > 100 µM | TGI (A498 renal): > 100 µM | TGI (OVCAR-5 ovarian): > 100 µM | TGI (SK-MEL-28 melanoma): > 100 µM | TGI (SK-MEL-5 melanoma): > 100 µM | TGI (OVCAR-3 ovarian): > 100 µM | TGI (KM12 colon): > 100 µM | TGI (CAKI-1 renal): > 100 µM | TGI (IGROV1 ovarian): > 100 µM | TGI (OVCAR-8 ovarian): > 100 µM | TGI (CCRF-CEM leukemia): > 100 µM | TGI (A549 NSCLC): > 100 µM | TGI (HOP-62 NSCLC): > 100 µM | TGI (K-562 leukemia): > 100 µM | TGI (COLO 205 colon): > 100 µM | TGI (UACC-257 melanoma): > 100 µM | TGI (SN12K1 renal): > 100 µM | TGI (NCI/ADR-RES ovarian): > 100 µM | TGI (UO-31 renal): > 100 µM | TGI (HCT-116 colon): > 100 µM | TGI (SK-OV-3 ovarian): > 100 µM | TGI (DLD-1 colon): > 100 µM | TGI (SW-620 colon): > 100 µM | TGI (SNB-78 CNS): > 100 µM | TGI (DMS 273 small cell lung): > 100 µM | TGI (DMS 114 small cell lung): > 100 µM | TGI (RPMI-8226 leukemia): > 100 µM | TGI (MOLT-4 leukemia): > 100 µM | TGI (SK-MEL-2 melanoma): > 100 µM | TGI (OVCAR-4 ovarian): > 100 µM
